Source: patent US20250059231A1, “Protease inhibitors” (priority 2021, published 2025)
Where a SMILES comes first, the peptide text is derived from it. [ ]: non-standard residue; d: D form. The star is where a group is joined. Palmitoyl = CCCCCCCCCCCCCCCC(=O)*

target: T1, WNV protease (West Nile virus, UniProt P06935); assay: WNV protease assay (analogous procedure); assay type: biochemical; conditions: read-out: IC50 for WNNV
T1 construct: a trypsin-like serine protease domain in the N-terminal region of the flaviviral NS3 proteins
T1 sequence (P06935 1424-1463): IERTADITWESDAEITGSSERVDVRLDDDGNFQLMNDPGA
T1 sequence (P06935 1502-1679): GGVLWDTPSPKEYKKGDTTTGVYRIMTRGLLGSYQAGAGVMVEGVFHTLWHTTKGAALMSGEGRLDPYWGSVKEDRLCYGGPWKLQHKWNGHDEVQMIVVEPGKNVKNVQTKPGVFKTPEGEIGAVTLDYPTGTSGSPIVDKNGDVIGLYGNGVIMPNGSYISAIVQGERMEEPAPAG

SMILES | IC50 [µM]
CCCCCCCCCCCCCCCC(=O)N[C@@H](CCCCN)C(=O)N[C@@H](C)C(=O)N[C@@H](C)C(=O)N[C@H](C=O)CCCCN [compound 180] (Palmitoyl-KAAK-aldehyde) | ≤ 40
CCCCCCCCCCCCCCCC(=O)N[C@@H](CCCCN)C(=O)N[C@@H](C)C(=O)N[C@@H](CCCCN)B(O)O [compound 182] | ≤ 40
CCCCCCCCCCCCCCCC(=O)N[C@@H](CCCCN)C(=O)N[C@@H](C)C(=O)N[C@@H](C)C(=O)N[C@@H](CCCCN)C(O)O [compound 183] | ≤ 40
CCCCCCCCCCCCCCCC(=O)N[C@@H](CCCCN)C(=O)N[C@@H](C)C(=O)N[C@H](C=O)CCCCN [compound 186] (Palmitoyl-Lys-Ala-Lys-aldehyde) | ≤ 40
CCCCCCCCCCCCCCCC(=O)N[C@H](CCCCN)C(=O)N[C@@H](C)C(=O)N[C@@H](C)C(=O)N[C@@H](Cc1ccccc1)C(N)=O [compound 193] (Palmitoyl-[dK]AAF-NH2) | ≤ 40

target: T2, DENV protease (Dengue virus type 2, UniProt P29990); assay: biochemical; conditions: at 50 μM; read-out: inhibition of DENV
T2 construct: The virus-encoded dengue protease comprises the amino-terminal 180 amino acids of NS3 (NS3pro) of the polyprotein
T2 sequence (P29990 1398-1437): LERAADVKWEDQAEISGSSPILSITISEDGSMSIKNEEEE
T2 sequence (P29990 1476-1653): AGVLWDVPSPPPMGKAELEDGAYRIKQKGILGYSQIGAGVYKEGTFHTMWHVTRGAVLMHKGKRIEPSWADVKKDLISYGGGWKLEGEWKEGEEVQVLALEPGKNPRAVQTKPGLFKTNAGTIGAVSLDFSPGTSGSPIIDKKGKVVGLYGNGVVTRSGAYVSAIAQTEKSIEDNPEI
Experimental: (§1) Dilutions were made starting from 10 mM stock solutions in DMSO and final concentrations were measured in triplicates. The inhibitors were preincubated for 15 min with DENV protease (100 nM) in the assay buffer (50 mM Tris-HCl pH 9.0, ethylene glycol (10% v/v), and 0.0016% Brij 58). The enzymatic reaction was initiated by the addition of the FRET substrate (final concentration 50 μM) to obtain a final assay volume of 100 μL per well. The enzymatic activity was monitored for 15 min and determined as a slope of relative fluorescence units per second (RFU/s) for each concentration. The mean of the triplicates were plotted against the corresponding concentration in CDDVault to determine the IC50-values. Analogous procedures were used to determine the inhibitory potency on WNV (Kühl et al., J. Med. Chem. 2020, 63 (15): 8179-8197) and ZIKA protease (Nitsche et al., ACS Med. Chem. Lett. 2019 Feb. 14; 10 (2): 168-174). For selectivity screening of active candidates, similar biochemical assays with human serine proteases trypsin (Weigel et al., J. Med. Chem. 2015, 58 (19), 7719-7733.) and/or thrombin (Nitsche et al., J. Med. Chem. 2013, 56 (21), 8389-8403) were used.

SMILES | inhibition at 50 µM [%]
CCCCCCCCCCCCCCCC(=O)N[C@@H](CCCCN)C(=O)N[C@@H](C)C(=O)N[C@@H](CCCCN)C(=O)NS(=O)(=O)C1CC1 [compound 178] | ≥ 25
CCCCCCCCCCCCCCCC(=O)N[C@@H](CCCCN)C(=O)N[C@@H](C)C(=O)N[C@H](CCCCN)C(=O)NS(=O)(=O)C1CC1 [compound 179] | ≥ 25
CCCCCCCCCCCCCCCC(=O)N[C@@H](CCCCN)C(=O)N[C@@H](C)C(=O)N[C@@H](C)C(=O)N[C@H](C=O)CCCCN [compound 180] (Palmitoyl-KAAK-aldehyde) | ≥ 25
CCCCCCCCCCCCCCCC(=O)N[C@@H](CCCCN)C(=O)N[C@@H](C)C(=O)N[C@@H](CCCCN)B(O)O [compound 182] | ≥ 25
CCCCCCCCCCCCCCCC(=O)N[C@@H](CCCCN)C(=O)N[C@@H](C)C(=O)N[C@@H](C)C(=O)N[C@@H](CCCCN)C(O)O [compound 183] | ≥ 25
CCCCCCCCCCCCCCCC(=O)N[C@@H](CCCCN)C(=O)N[C@@H](C)C(=O)N[C@@H](CCCCN)C(=O)N(C)C [compound 184] (Palmitoyl-Lys-Ala-Lys-NMe2) | ≥ 25
CCCCCCCCCCCCCCCC(=O)N[C@@H](CCCCN)C(=O)N[C@@H](C)C(=O)N[C@@H](CCCCN)C(=O)N(C)OC [compound 185] | ≥ 25
CCCCCCCCCCCCCCCC(=O)N[C@@H](CCCCN)C(=O)N[C@@H](C)C(=O)N[C@H](C=O)CCCCN [compound 186] (Palmitoyl-Lys-Ala-Lys-aldehyde) | ≥ 25
CCCCCCCCCCCCCCCC(=O)N[C@@H](CCCCN)C(=O)N[C@@H](C)C(=O)N[C@@H](C)C(=O)N[C@@H](CCCCN)C(=O)N(C)C [compound 187] (Palmitoyl-KAAK-NMe2) | ≥ 25
CCCCCCCCCCCCCCCC(=O)N[C@@H](CCCCN)C(=O)N[C@@H](C)C(=O)N[C@@H](CCCCN)C(=O)O [compound 188] (Palmitoyl-Lys-Ala-Lys-OH) | ≥ 25
CCCCCCCCCCCCCCCC(=O)N[C@@H](CCCCN)C(=O)N[C@@H](C)C(=O)N[C@@H](Cc1ccccc1)C(N)=O [compound 192] (Palmitoyl-Lys-Ala-Phe-NH2) | ≥ 25
CCCCCCCCCCCCCCCC(=O)N[C@H](CCCCN)C(=O)N[C@@H](C)C(=O)N[C@@H](C)C(=O)N[C@@H](Cc1ccccc1)C(N)=O [compound 193] (Palmitoyl-[dK]AAF-NH2) | ≥ 25

target: human Thrombin (Homo sapiens, UniProt P00734); assay: Selectivity screening, human serine protease thrombin; assay type: biochemical; conditions: at 5 μM; read-out: inhibition of human Thrombin
Experimental: as §1, with “By catalytic activity of the protease, the cleaved substrate results in increased fluorescence that can be monitored using a BMG Labtech Fluostar OPTIMA Microtiter fluorescence plate reader (excitation wavelength of 320 nm and a monitored emission wavelength of 405 nm). Dilutions” for “Dilutions”

SMILES | inhibition at 5 µM [%]
CCCCCCCCCCCCCCCC(=O)N[C@@H](CCCCN)C(=O)N[C@@H](C)C(=O)N[C@@H](C)C(=O)N[C@H](C=O)CCCCN [compound 180] (Palmitoyl-KAAK-aldehyde) | < 5
CCCCCCCCCCCCCCCC(=O)N[C@@H](CCCCN)C(=O)N[C@@H](C)C(=O)N[C@H](C=O)CCCCN [compound 186] (Palmitoyl-Lys-Ala-Lys-aldehyde) | < 5

target: T1, WNV protease; assay: WNV protease assay (analogous procedure); assay type: biochemical; conditions: at 1 μM; read-out: inhibition of WNNV
Experimental: as §1, with “By catalytic activity of the protease, the cleaved substrate results in increased fluorescence that can be monitored using a BMG Labtech Fluostar OPTIMA Microtiter fluorescence plate reader (excitation wavelength of 320 nm and a monitored emission wavelength of 405 nm). Dilutions” for “Dilutions”

SMILES | inhibition at 1 µM [%]
CCCCCCCCCCCCCCCC(=O)N[C@@H](CCCCN)C(=O)N[C@@H](C)C(=O)N[C@H](C=O)CCCCN [compound 186] (Palmitoyl-Lys-Ala-Lys-aldehyde) | ≥ 10

same assay, conditions: at 50 μM

SMILES | inhibition at 50 µM [%]
CCCCCCCCCCCCCCCC(=O)N[C@@H](CCCCN)C(=O)N[C@@H](C)C(=O)N[C@@H](C)C(=O)N[C@H](C=O)CCCCN [compound 180] (Palmitoyl-KAAK-aldehyde) | ≥ 25
CCCCCCCCCCCCCCCC(=O)N[C@@H](CCCCN)C(=O)N[C@@H](C)C(=O)N[C@@H](CCCCN)B(O)O [compound 182] | ≥ 25
CCCCCCCCCCCCCCCC(=O)N[C@@H](CCCCN)C(=O)N[C@@H](C)C(=O)N[C@@H](C)C(=O)N[C@@H](CCCCN)C(O)O [compound 183] | ≥ 25
CCCCCCCCCCCCCCCC(=O)N[C@@H](CCCCN)C(=O)N[C@@H](C)C(=O)N[C@@H](CCCCN)C(=O)N(C)C [compound 184] (Palmitoyl-Lys-Ala-Lys-NMe2) | ≥ 25
CCCCCCCCCCCCCCCC(=O)N[C@@H](CCCCN)C(=O)N[C@@H](C)C(=O)N[C@@H](CCCCN)C(=O)N(C)OC [compound 185] | ≥ 25
CCCCCCCCCCCCCCCC(=O)N[C@@H](CCCCN)C(=O)N[C@@H](C)C(=O)N[C@H](C=O)CCCCN [compound 186] (Palmitoyl-Lys-Ala-Lys-aldehyde) | ≥ 25
CCCCCCCCCCCCCCCC(=O)N[C@@H](Cc1c[nH]c2ccccc12)C(=O)N[C@@H](C)C(=O)N[C@@H](C)C(=O)N[C@@H](Cc1c[nH]c2ccccc12)C(N)=O [compound 191] (Palmitoyl-WAAW-NH2) | ≥ 25
CCCCCCCCCCCCCCCC(=O)N[C@@H](CCCCN)C(=O)N[C@@H](C)C(=O)N[C@@H](Cc1ccccc1)C(N)=O [compound 192] (Palmitoyl-Lys-Ala-Phe-NH2) | ≥ 25
CCCCCCCCCCCCCCCC(=O)N[C@H](CCCCN)C(=O)N[C@@H](C)C(=O)N[C@@H](C)C(=O)N[C@@H](Cc1ccccc1)C(N)=O [compound 193] (Palmitoyl-[dK]AAF-NH2) | ≥ 25
